In article PMC7864192 (Cancers, 2021):
Values joined by “and” are separate entries in the source; they are usually repeats but may differ in a detail not shown here. Equal entries are not always repeated. Where two headings read alike, the source gives them in different places.

Key:
[1] = system: GCPA096 T1.XV patient-derived AGCT cell line; assay: Cell viability drug screen (Cell Titer Glo 2.0, 72 h), mono- and combination therapy, GCPA096T1.XV; settings: for IC50: Homo sapiens, 72 h, read-out: IC50 in monotherapy; for DRI (Fa=0,5): GCPA096T1XV
[2] = system: GCPA028 T1.II patient-derived AGCT cell line; assay: Cell viability drug screen (Cell Titer Glo 2.0, 72 h), mono- and combination therapy, GCPA028; settings: for IC50: Homo sapiens, read-out: IC50 in monotherapy
Protocol: (§1) Cell lines were seeded at a density of 500 cells/well in 40 uL in 384-well plates (Corning, NY, USA) with the Multidrop™ cell dispenser (Thermo Fischer Scientific, Waltham, MA, USA) and sealed with Breathe-Easy® membrane (Sigma-Aldrich, St. Louis, MO, USA) to prevent evaporation. The SVOG-3e line was seeded at 1000 cells/well due to contact-dependent growth requirements. For each cell line, three biological repeats and two technical repeats each were performed in order to ensure the validity of the drug screens. […] Subsequently, 11 drugs and 12 drug combinations were dispensed and all wells (excluding blanks and non-DMSO control wells) were normalized to 1% DMSO using the HP Tecan D300e Digital Dispenser (Hewlett-Packard, Palo Alto, CA, USA). All drugs were applied in linear concentration ranges (Table 2), including 16 data points to enable combination drug testing at constant ratios (Table 3). Next, the plates were covered with the Breathe-Easy membrane and incubated. After 72 h, the Multidrop dispensed 15 uL per well of Cell Titer Glo 2.0 (Thermo Fischer Scientific, Waltham, MA, USA) and plates were incubated in the dark for 10 min. After incubation, luminescence excitation was assessed in the Spectramax reader (Molecular Devices, San Jose, CA, USA) (top read, luminescence excitation at 500 nm) and raw data were processed in Microsoft Excel to subtract background luminescence. […] Screens with a Z-factor value of >0.5 were used for further analysis.
(§2) Overall cell survival (in %) was plotted against the drug concentration range of each drug (in log10[μM]) using GraphPad Prism 8.3.1. Values that exceeded 100% survival (within +20% biological deviation) were normalized to 100% survival. Similarly, values below 0% cell survival (within −20% biological deviation) were normalized to 0% survival. Values exceeding this deviation were excluded. Dose–response curves were obtained using the model “log(inhibitor) vs. variable slope (normalized response)” to fit the dose–response curves and R^2 values were used to indicate how well the model fit the data (Supplementary Materials Figures S4 and S5). […] The maximum plasma concentration (Cmax) and the plasma concentration at steady state (Css) were used as toxicity thresholds. The Cmax was utilized for drugs in which short, high-dosage time courses are required, while the Css was used for maintenance therapy regimes such as anti-hormonal treatment. […] The IC50 values were calculated based on the Chou–Talalay method using Compusyn software [55]. For anti-hormonal treatment, mostly provided as maintenance therapy, we used IC10 values in addition to the IC50.
(§3) In addition to the 11 monotherapies, 12 drug combinations were tested (Table 3) simultaneously with the individual drug treatments in the same 384-well plate. […] Synergy was evaluated using the mass action law, a systematic analysis assessing dose–response dynamics in a cost-effective manner [56, 57]. The combination index (CI) was used to indicate antagonistic (CI > 1) additive (CI = 1) and synergistic (CI < 1) effects [55].

[3] = system: MCF-7 human breast cancer cell line; assay: Cell viability drug screen (72 h), MCF-7 positive control for anti-hormonal therapies; assay type: cell-based; settings: monotherapy
Protocol: (§4) KGN was cultured in conditions identical to AGCT-patient-derived cell lines.
(§5) Cell lines were seeded at a density of 500 cells/well in 40 uL in 384-well plates (Corning, NY, USA) with the Multidrop™ cell dispenser (Thermo Fischer Scientific, Waltham, MA, USA) and sealed with Breathe-Easy® membrane (Sigma-Aldrich, St. Louis, MO, USA) to prevent evaporation. The SVOG-3e line was seeded at 1000 cells/well due to contact-dependent growth requirements. For each cell line, three biological repeats and two technical repeats each were performed in order to ensure the validity of the drug screens. […] Subsequently, 11 drugs and 12 drug combinations were dispensed and all wells (excluding blanks and non-DMSO control wells) were normalized to 1% DMSO using the HP Tecan D300e Digital Dispenser (Hewlett-Packard, Palo Alto, CA, USA). […] After incubation, luminescence excitation was assessed in the Spectramax reader (Molecular Devices, San Jose, CA, USA) (top read, luminescence excitation at 500 nm) and raw data were processed in Microsoft Excel to subtract background luminescence. […]
(§6) Overall cell survival (in %) was plotted against the drug concentration range of each drug (in log10[μM]) using GraphPad Prism 8.3.1. […] The IC50 values were calculated based on the Chou–Talalay method using Compusyn software [55]. […]

[4] = system: KGN cells (AGCT cell line); assay: Cell viability drug screen (Cell Titer Glo 2.0, 72 h), mono- and combination therapy, KGN; settings: for IC50: Homo sapiens, read-out: IC50 in monotherapy
Protocol: as §4, §1
(§7) Overall cell survival (in %) was plotted against the drug concentration range of each drug (in log10[μM]) using GraphPad Prism 8.3.1. Values that exceeded 100% survival (within +20% biological deviation) were normalized to 100% survival. Similarly, values below 0% cell survival (within −20% biological deviation) were normalized to 0% survival. Values exceeding this deviation were excluded. Dose–response curves were obtained using the model “log(inhibitor) vs. variable slope (normalized response)” to fit the dose–response curves and R^2 values were used to indicate how well the model fit the data (Supplementary Materials Figures S4 and S5). […] The IC50 values were calculated based on the Chou–Talalay method using Compusyn software [55]. For anti-hormonal treatment, mostly provided as maintenance therapy, we used IC10 values in addition to the IC50.

[5] = system: GCPA007 T2.I patient-derived AGCT cell line; assay: Cell viability drug screen (Cell Titer Glo 2.0, 72 h), mono- and combination therapy, GCPA007T2.I; settings: for IC50: Homo sapiens, 72 h, read-out: IC50 in monotherapy; for DRI (Fa=0,5): GCPA007T2I
Protocol: as §1, §2, §3

[6] = system: GCPA113 T1.III patient-derived AGCT cell line; assay: Cell viability drug screen (Cell Titer Glo 2.0, 72 h), mono- and combination therapy, GCPA113T1.III; settings: for IC50: Homo sapiens; for DRI (Fa=0,5): GCPA113T1III
Protocol: (§8) Cell lines were seeded at a density of 500 cells/well in 40 uL in 384-well plates (Corning, NY, USA) with the Multidrop™ cell dispenser (Thermo Fischer Scientific, Waltham, MA, USA) and sealed with Breathe-Easy® membrane (Sigma-Aldrich, St. Louis, MO, USA) to prevent evaporation. […] For each cell line, three biological repeats and two technical repeats each were performed in order to ensure the validity of the drug screens. […] Subsequently, 11 drugs and 12 drug combinations were dispensed and all wells (excluding blanks and non-DMSO control wells) were normalized to 1% DMSO using the HP Tecan D300e Digital Dispenser (Hewlett-Packard, Palo Alto, CA, USA). […] Next, the plates were covered with the Breathe-Easy membrane and incubated. After 72 h, the Multidrop dispensed 15 uL per well of Cell Titer Glo 2.0 (Thermo Fischer Scientific, Waltham, MA, USA) and plates were incubated in the dark for 10 min. After incubation, luminescence excitation was assessed in the Spectramax reader (Molecular Devices, San Jose, CA, USA) (top read, luminescence excitation at 500 nm) and raw data were processed in Microsoft Excel to subtract background luminescence. The Z-factor, a mathematical method used to quantify the quality of a drug screen based on the calculation of the separation band between the values of the positive and negative controls, was utilized to assess the quality of drug screens [54]. Screens with a Z-factor value of >0.5 were used for further analysis.
as §7, §3

[7] = system: GCPA113 T1.II patient-derived AGCT cell line; assay: Cell viability drug screen (Cell Titer Glo 2.0, 72 h), mono- and combination therapy, GCPA113T1.II; settings: for IC50: Homo sapiens; for DRI (Fa=0,5): GCPA113T1II
Protocol: as §8, §7, §3

[8] = system: GCPA096 T1.II patient-derived AGCT cell line; assay: Cell viability drug screen (Cell Titer Glo 2.0, 72 h), mono- and combination therapy, GCPA096T1.II; settings: for IC50: Homo sapiens, 72 h, read-out: IC50 in monotherapy; for DRI (Fa=0,5): GCPA096T1II
Protocol: as §1, §2, §3

[9] = system: GCPA096 T1.XVI patient-derived AGCT cell line; assay: Cell viability drug screen (Cell Titer Glo 2.0, 72 h), mono- and combination therapy, GCPA096T1.XVI; settings: for IC50: Homo sapiens, read-out: IC50 in monotherapy; for DRI (Fa=0,5): GCPA096T1XVI
Protocol: as §1, §2, §3

[10] = system: GCPA113 T1.I patient-derived AGCT cell line; assay: Cell viability drug screen (Cell Titer Glo 2.0, 72 h), mono- and combination therapy, GCPA113T1.I; settings: for IC50: Homo sapiens; for DRI (Fa=0,5): GCPA113T1I
Protocol: as §8, §7, §3

[11] = system: GCPA108 T3.IV patient-derived AGCT cell line; assay: Cell viability drug screen (Cell Titer Glo 2.0, 72 h), mono- and combination therapy, GCPA108T3.IV; settings: for IC50: Homo sapiens, read-out: IC50 in monotherapy; for DRI (Fa=0,5): GCPA108T3IV
[12] = system: GCPA007 T2.IV patient-derived AGCT cell line; assay: Cell viability drug screen (Cell Titer Glo 2.0, 72 h), mono- and combination therapy, GCPA007T2.IV; settings: for IC50: Homo sapiens, read-out: IC50 in monotherapy; for DRI (Fa=0,5): GCPA007T2IV
[13] = system: GCPA096 T1.I patient-derived AGCT cell line; assay: Cell viability drug screen (Cell Titer Glo 2.0, 72 h), mono- and combination therapy, GCPA096T1.I; settings: for IC50: Homo sapiens, read-out: IC50 in monotherapy; for DRI (Fa=0,5): GCPA096T1I
Protocol: as §8, §7, §3

[14] = system: GCPA096 T1.V patient-derived AGCT cell line; assay: Cell viability drug screen (Cell Titer Glo 2.0, 72 h), mono- and combination therapy, GCPA096T1.V; settings: for IC50: Homo sapiens, 72 h, read-out: IC50 in monotherapy; for DRI (Fa=0,5): GCPA096T1V
Protocol: as §1, §2, §3

AGCT cell lines = assay: Cell viability drug screen (72 h), summary over AGCT cell lines (12 patient-derived, with or without KGN); assay type: cell-based, human; settings: Homo sapiens; median over AGCT cell lines; read-out: median IC50 in monotherapy
[15] = system: SVOG-3e immortalized human granulosa cell line; assay: Cell viability drug screen (72 h), SVOG-3e control; assay type: cell-based; settings: monotherapy
Protocol: as §4, §5, §6

[16] = cited from earlier work
[17] = 72 h, read-out: IC50 in monotherapy
[18] = drug within Carbo+Pacli+Alpelisib
[19] = drug within Everolimus+Alpelisib
[20] = in combination Carbo+Pacli+Alpelisib
[21] = in combination Everolimus+Alpelisib

Q: Which IC50 [1] does the source give for `CC(C)(C#N)c1cc(Cn2cncn2)cc(C(C)(C)C#N)c1` [Anastrozole] here?
A: The IC50 was > 200 µM.

Q: And the IC50 ([2]; 72 h)?
A: The IC50 was > 200 µM.

Q: And the “effect on cell viability at tolerable concentrations” value [3]?
A: Its value is “did not decrease cell viability at tolerable concentrations”.

Q: What about the IC50 ([4]; 72 h) of the same compound?
A: The IC50 was > 200 µM.

Q: What about the IC50 [5] of the same compound?
A: Its IC50 is > 200 µM.

Q: And the IC50 [6, 17]?
A: Its IC50 is > 200 µM.

Q: And the IC50 [7, 17]?
A: The IC50 was > 200 µM.

Q: What about the IC50 [8] of the same compound?
A: Its IC50 is > 200 µM.

Q: What about the IC50 ([9]; 72 h) of the same compound?
A: The IC50 was > 200 µM.

Q: What about the IC50 [10, 17] of the same compound?
A: The IC50 was > 200 µM.

Q: And the IC50 ([11]; 72 h)?
A: Its IC50 is > 200 µM.

Q: And the IC50 ([12]; 72 h)?
A: The IC50 was > 200 µM.

Q: What about the IC50 ([13]; 72 h) of the same compound?
A: The IC50 was > 200 µM.

Q: What about the IC50 [14] of the same compound?
A: The IC50 was > 200 µM.

Q: For `Cc1nc(NC(=O)N2CCC[C@H]2C(N)=O)sc1-c1ccnc(C(C)(C)C(F)(F)F)c1` [Alpelisib], which “DRI (Fa=0,5)” value [1, 18] is on record?
A: Its value is 2.12.

Q: What about the “DRI (Fa=0,5)” value [1, 19] of the same compound?
A: The value was 1.36.

Q: What about the IC50 [1] of the same compound?
A: The IC50 was 14.6 µM.

Q: What about the “DRI (Fa=0,5)” value ([2]; GCPA028, in combination Carbo+Pacli+Alpelisib) of the same compound?
A: Its value is 4.95.

Q: What about the “DRI (Fa=0,5)” value ([2]; GCPA028, in combination Everolimus+Alpelisib) of the same compound?
A: Its value is 0.99.

Q: What about the IC50 ([2]; 72 h) of the same compound?
A: Its IC50 is 22.8 µM.

Q: And the IC50 [2]?
A: The IC50 was 22.8 µM.

Q: What about the IC50 ([4]; 72 h) of the same compound?
A: Its IC50 is 24.4 µM.

Q: What about the IC50 [4] of the same compound?
A: Its IC50 is 24.4 µM.

Q: And the “DRI (Fa=0,5)” value [4, 18]?
A: The value was 10.9278.

Q: What about the “DRI (Fa=0,5)” value [4, 19] of the same compound?
A: The value was 1.384.

Q: What about the IC50 [5] of the same compound?
A: The IC50 was 22 µM.

Q: And the “DRI (Fa=0,5)” value ([5]; in Carbo+Pacli+Alpelisib (10:1:2))?
A: The value was 10.78.

Q: What about the “DRI (Fa=0,5)” value ([5]; in Everolimus+Alpelisib (1:2)) of the same compound?
A: Its value is 1.24.

Q: And the “DRI (Fa=0,5)” value [6, 18]?
A: The value was 5.76.

Q: What about the “DRI (Fa=0,5)” value [6, 19] of the same compound?
A: The value was 1.89.

Q: What about the IC50 [6] of the same compound?
A: Its IC50 is 11.5 µM.

Q: What about the IC50 [6, 17] of the same compound?
A: Its IC50 is 11.5 µM.

Q: What about the IC50 ([6]; read-out: IC50 in monotherapy) of the same compound?
A: Its IC50 is 11.5 µM.

Q: What about the “DRI (Fa=0,5)” value [7, 18] of the same compound?
A: The value was 1.81.

Q: What about the “DRI (Fa=0,5)” value [7, 19] of the same compound?
A: Its value is 1.09.

Q: What about the IC50 [7] of the same compound?
A: Its IC50 is 21.4 µM.

Q: What about the IC50 [7, 17] of the same compound?
A: The IC50 was 21.4 µM.

Q: What about the IC50 ([7]; read-out: IC50 in monotherapy) of the same compound?
A: Its IC50 is 21.4 µM.

Q: And the “DRI (Fa=0,5)” value [8, 18]?
A: The value was 2.15.

Q: What about the “DRI (Fa=0,5)” value [8, 19] of the same compound?
A: Its value is 1.5.

Q: What about the IC50 [8] of the same compound?
A: Its IC50 is 12.6 µM.

Q: What about the “DRI (Fa=0,5)” value ([9]; in Carbo+Pacli+Alpelisib) of the same compound?
A: Its value is 1.95.

Q: What about the “DRI (Fa=0,5)” value ([9]; in Everolimus+Alpelisib) of the same compound?
A: The value was 1.7.

Q: And the IC50 ([9]; 72 h)?
A: The IC50 was 23.5 µM.

Q: What about the IC50 [9] of the same compound?
A: Its IC50 is 23.5 µM.

Q: What about the “DRI (Fa=0,5)” value ([10]; in Carbo+Pacli+Alpelisib) of the same compound?
A: The value was 3.06.

Q: What about the “DRI (Fa=0,5)” value ([10]; in Everolimus+Alpelisib) of the same compound?
A: Its value is 0.95.

Q: What about the IC50 [10] of the same compound?
A: The IC50 was 9.59 µM.

Q: What about the IC50 [10, 17] of the same compound?
A: The IC50 was 9.59 µM.

Q: What about the IC50 ([10]; read-out: IC50 in monotherapy) of the same compound?
A: Its IC50 is 9.59 µM.

Q: And the “DRI (Fa=0,5)” value ([11]; in Carbo+Pacli+Alpelisib)?
A: Its value is 13.6802.

Q: And the “DRI (Fa=0,5)” value ([11]; in Everolimus+Alpelisib)?
A: The value was 5.603.

Q: What about the IC50 ([11]; 72 h) of the same compound?
A: Its IC50 is 53.9 µM.

Q: What about the IC50 [11] of the same compound?
A: Its IC50 is 53.9 µM.

Q: And the IC50 (AGCT cell lines)?
A: The IC50 was 15 µM.

Q: And the “DRI (Fa=0,5)” value [12, 20]?
A: Its value is 4.44.

Q: And the “DRI (Fa=0,5)” value [12, 21]?
A: Its value is 10.73.

Q: And the IC50 ([12]; 72 h)?
A: The IC50 was 26.7 µM.

Q: What about the IC50 [12] of the same compound?
A: Its IC50 is 26.7 µM.

Q: What about the “DRI (Fa=0,5)” value [13, 20] of the same compound?
A: The value was 1.7.

Q: And the “DRI (Fa=0,5)” value [13, 21]?
A: Its value is 1.24.

Q: What about the IC50 ([13]; 72 h) of the same compound?
A: Its IC50 is 11.7 µM.

Q: And the IC50 [13]?
A: The IC50 was 11.7 µM.

Q: And the IC50 [15]?
A: The IC50 was 7.55 µM.

Q: What about the “DRI (Fa=0,5)” value [14, 18] of the same compound?
A: Its value is 2.2.

Q: And the “DRI (Fa=0,5)” value [14, 19]?
A: Its value is 1.57.

Q: What about the IC50 [14] of the same compound?
A: Its IC50 is 15 µM.

Q: And the “Cmax/Css plasma (Log 10)” value ([16]; human maximum or steady state plasma concentration, log10 of the uM value)?
A: Its value is 0.84 Log 10.

Q: What about the “Cmax/Css plasma (Log 10)” value ([16]; human plasma Cmax/Css, log10 of uM value, from phase I/II clinical trials) of the same compound?
A: Its value is 0.84 Log 10.

Q: And the “Cmax/Css plasma (Log 10)” value ([16]; human plasma maximum/steady state concentration, ref phase I/II clinical trials)?
A: The value was 0.84 Log 10.

Q: And the “Cmax/Css plasma (Log 10)” value ([16]; human plasma, maximum or steady state concentration, log10 of uM value)?
A: The value was 0.84.

Q: What about the “Cmax/Css plasma (Log 10)” value ([16]; human plasma, log10 of uM, phase I/II trials) of the same compound?
A: Its value is 0.84.

Q: And the Cmax ([16]; read-out: Cmax (maximum drug concentration achieved in plasma), human plasma, phase I/II studies)?
A: Its Cmax is 6.9 µM and 6.92 µM.

Q: And the Cmax ([16]; read-out: Cmax/Css plasma, human maximum or steady state plasma concentration)?
A: Its Cmax is 6.92 µM.

Q: And the Cmax ([16]; read-out: Cmax/Css plasma, human plasma Cmax/Css, from phase I/II clinical trials)?
A: Its Cmax is 6.92 µM.

Q: And the Cmax ([16]; read-out: Cmax/Css plasma, human plasma maximum/steady state concentration, ref phase I/II clinical trials)?
A: Its Cmax is 6.92 µM.

Q: And the Cmax ([16]; read-out: Cmax/Css plasma, human plasma, maximum or steady state concentration)?
A: Its Cmax is 6.92 µM.

Q: And the Cmax ([16]; read-out: Cmax/Css plasma, human plasma, phase I/II trials)?
A: The Cmax was 6.92 µM.
